This note sets out measurements from patent publication US8314130B2, “Compounds inclunding substituted pyridines for inflammation and immune-related uses” (Synta Pharmaceuticals Corp., priority 2008, dated 2012).

Molecules are shown by their SMILES. Read-outs that look alike come from different tables or passages of the source.

Usually inhibition stands for the drop in the measured response relative to a control, in per cent. The low end stands for little suppression, the high end for strong suppression.

One experiment deals with IL-2. Kind of experiment: Inhibition of IL-2 production in PHA-activated Jurkat cells (1% FBS), ELISA. In kind it is cell-based. Particulars: Homo sapiens, read-out: IL-2 current inhibition Jurkat/PHA/1% FBS IC50. The protocol:
Jurkat cells were placed in a 96 well plate (0.5 million cells per well in 1% FBS medium), and then a test compound of this invention was added at different concentrations. After 10 minutes, the cells were activated with PHA (final concentration 2.5 μg/mL) and incubated for 20 hours at 37° C. under 5% CO2. The final volume was 200 Following incubation, the cells were centrifuged, and the supernatants collected and stored at −70° C. prior to assaying for IL-2 production. A commercial ELISA kit (IL-2 Eli-pair, Diaclone Research, Besancon, France) was used to detect production of IL-2, from which dose response curves were obtained. The IC50 value was calculated as the concentration at which 50% of maximum IL-2 production after stimulation was inhibited versus a non-stimulation control.
(ELISA stands for enzyme-linked immunosorbent assay.)

The target of the next experiment is T1, CRACM1/STIM1 (Homo sapiens, UniProt Q96D31).
T1 construct: Full length human Stim1, CracM1, CracM2 and CracM3 cDNA
Kind of experiment: ICRAC current inhibition in CRACM1/STIM1-CHOK1 cells (patch clamp). In kind it is cell-based. Particulars: 500 nM, activity class. The protocol: Manual patch clamp experiments are conducted in the tight-seal whole-cell configuration at room temperature (21-25° C.). Patch pipettes are fashioned from borosilicate glass capillary tubes and have resistances between 2-4 MO after filling with standard intracellular solution. High resolution current recordings are acquired with a computer-based patch clamp amplifier system (EPC-10, HEKA, Lambrecht, Germany). All voltages are corrected for a liquid junction potential of 10 mV between external and internal solutions with glutamate as the intracellular anion. Currents are filtered at 2.9 kHz and digitized at 10 μs intervals. Capacitive currents and series resistance are determined and corrected before each voltage ramp using the automatic capacitance compensation of the EPC-10.
Automated patch clamp experiments are conducted with the QPatch 16 (Sophion Bioscience, Ballerup, Denmark) at room temperature (21-25° C.). Immediately following the establishment of giga-seal whole-cell configuration, the cells membrane potential is clamped at 0 mV. Voltage ramps of 50 ms duration spanning the voltage range of −100 to +100 mV are then stimulated at a rate of 0.33 Hz. Currents are filtered at 2.9 kHz and digitized at 200 μs intervals. Capacitive currents and series resistance are determined and corrected before each voltage ramp using the automatic capacitance compensation.
In general, a whole cell patch clamp method is used to examine the effects of a compound of the invention on a channel(s) that mediates ICRAC. In such experiments, a baseline ICRAC measurement is established within the first 70 voltage ramps, or 140 seconds, for a patched cell. Then the cells are perfused with the compound to be tested and the effect of the compound on ICRAC is measured for at least an additional 440 to 500 seconds. A compound that modulates ICRAC (e.g., inhibits) is a compound that is useful in the invention for modulating CRAC ion channel activity.
ICRAC currents are measured using 50 msec voltage ramps between −100 mV to +100 mV. The voltage ramps are stimulated every 2 seconds for the first 70 sweeps, then every 5 seconds for the remainder of the experiment. The membrane potential is held at 0 mV between the test ramps. In a typical experiment, the peak inward currents will develop within 50-100 seconds. Once the ICRAC current is stabilized, the cells are perfused with a test compound in the extracellular solution for at least an additional 500 seconds.
Off-line analysis with the Heka PatchMaster software is used to separate the ICRAC membrane current from the cells basal background currents. In a typical recording, InsP3 stimulated ICRAC currents begin to develop in 6 to 12 seconds after whole cell is established. Therefore, the first 1-4 voltage ramps represent the basal membrane currents in the absence of ICRAC and the average value is subtracted from all subsequent traces. The current value at −80 mV for each ramp trace is then measured and plotted against time. The resulting current versus time data is exported into a Microsoft Excel spreadsheet. The % ICRAC inhibition in each cell is calculated by comparing the amount of current just prior to the compound perfusion to the amount of current after the cells has been perfused with the compound for 440-500 seconds. The IC50 value and Hill coefficient for each compound is estimated by fitting all the individual data points to a single-site Hill equation.
TREx™-CHO cells were transfected with human Stim1 (recombinant DNA in pcDNA4/TO/myc-His™ A with a myc epitope tag in the N-terminal) and either CracM1, CracM2 or CracM3 (recombinant DNA in pcDNA 3.1 with a HA epitope tag in the N-terminal). Stably expressing cells were selected by growing the transfected cells in antibiotics for two to three weeks. Individual cell clones were isolated via serial dilution. […]
A general note: Patch clamp records ionic current or voltage across a cell membrane.

T1 sequence (Q96D31 whole entry): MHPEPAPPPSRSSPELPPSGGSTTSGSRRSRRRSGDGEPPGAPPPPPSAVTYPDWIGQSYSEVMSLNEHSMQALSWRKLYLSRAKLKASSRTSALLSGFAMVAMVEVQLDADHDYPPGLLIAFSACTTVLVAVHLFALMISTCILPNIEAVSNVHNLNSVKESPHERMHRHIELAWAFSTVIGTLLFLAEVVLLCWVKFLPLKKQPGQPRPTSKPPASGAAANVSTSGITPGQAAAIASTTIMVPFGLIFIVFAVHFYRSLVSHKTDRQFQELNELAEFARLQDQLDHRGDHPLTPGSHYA

For the compound `Cc1cc(C(=O)c2ccccc2)sc1-c1ccc(NC(=O)c2c(F)cccc2F)cc1` [A], in the experiment with IL-2 (activity class), the IC50 was under 50 nM. Besides, the inhibition at 0.5 µM against CRACM1/STIM1 lay within 70 to 100%. Turning to `Cc1cc(C(=O)c2cccnc2)sc1-c1ccc(NC(=O)c2c(F)cccc2F)nc1` [B], the IC50 in the experiment on IL-2 (activity class) is under 50 nM. On CRACM1/STIM1, this compound showed an inhibition at 0.5 µM of 50 to 70%. The like results for `CC(C)c1sc(-c2cccnc2)nc1-c1ccc(NC(=O)c2c(F)cccc2F)nc1` [C] were, in that order, under 50 nM and under 50%. The like results for `Cc1sc(-c2ccccn2)nc1-c1ccc(NC(=O)c2c(F)cccc2F)nc1` [Compound 1, 2,6-Difluoro-N-(5-(5-methyl-2-(pyridin-2-yl)thiazol-4-yl)pyridin-2-yl)benzamide] were, in that order, under 50 nM and 50 to 70%. Turning to `Cc1sc(-c2ccccn2)nc1-c1ccc(NC(=O)c2c(F)cccc2F)cc1` [Compound 2, 2,6-Difluoro-N-(4-(5-methyl-2-(pyridin-2-yl)thiazol-4-yl)phenyl)benzamide], the IC50 in the experiment with IL-2 (activity class) was under 50 nM. At CRACM1/STIM1, this compound returned an inhibition at 0.5 µM of 70 to 100%.

Consider `Cc1sc(-c2cccnc2)nc1-c1ccc(NC(=O)c2c(F)cccc2F)nc1` [Compound 3, 2,6-Difluoro-N-(5-(5-methyl-2-(pyridin-3-yl)thiazol-4-yl)pyridin-2-yl)benzamide], for which, in the experiment with IL-2 (activity class), the IC50 is under 50 nM. In addition, the inhibition at 0.5 µM against CRACM1/STIM1 lay within 70 to 100%. Consider `Cc1sc(-c2cnn(C)c2)nc1-c1ccc(NC(=O)c2c(F)cccc2F)nc1` [Compound 4, 2,6-Difluoro-N-(5-(5-methyl-2-(1-methyl-1H-pyrazol-4-yl)thiazol-4-yl)pyridin-2-yl)benzamide], for which the IC50 in the experiment with IL-2 (activity class) was under 50 nM. This compound had an inhibition at 0.5 µM on CRACM1/STIM1 of under 50%.

With `CC(C)c1sc(-c2cnn(C)c2)nc1-c1ccc(NC(=O)c2ccc(F)cc2F)nc1` [Compound 5, 2,4-Difluoro-N-(5-(5-isopropyl-2-(1-methyl-1H-pyrazol-4-yl)thiazol-4-yl)pyridin-2-yl)benzamide], the IC50 with IL-2 (activity class) is over 100 nM. For `Cc1cc(C(=O)c2cccnc2)sc1-c1ccc(NC(=O)c2c(F)cccc2F)cc1` [Compound 6, 2,6-difluoro-N-(4-(3-methyl-5-nicotinoylthiophen-2-yl)phenyl)benzamide], the IC50 in the experiment on IL-2 (activity class) was under 50 nM. Besides, the inhibition at 0.5 µM at CRACM1/STIM1 is 70 to 100%. On to `Cc1cc(Cc2cccnc2)sc1-c1ccc(NC(=O)c2c(F)cccc2F)cc1` [Compound 7, 2,6-difluoro-N-(4-(3-methyl-5-(pyridin-3-ylmethyl)thiophen-2-yl)phenyl)benzamide], for which the IC50 in the experiment on IL-2 (activity class) is under 50 nM. The compound further showed an inhibition at 0.5 µM against CRACM1/STIM1 of 70 to 100%. Turning to `CC(C)(O)c1sc(-c2cccnc2)cc1-c1ccc(NC(=O)c2c(F)cccc2F)nc1` [Compound 9, 2,6-difluoro-N-(5-(2-(2-hydroxypropan-2-yl)-5-(pyridin-3-yl)thiophen-3-yl)pyridin-2-yl)benzamide], in the experiment with IL-2 (activity class), the IC50 was over 100 nM. As to `CC(C)(O)c1sc(-c2cccnc2)cc1-c1cnc(NC(=O)c2c(F)cccc2F)cn1` [Compound 12, 2,6-difluoro-N-(5-(2-(2-hydroxypropan-2-yl)-5-(pyridin-3-yl)thiophen-3-yl)pyrazin-2-yl)benzamide], the IC50 in the experiment on IL-2 (activity class) is over 100 nM.

Take `C=C(C)c1sc(-c2cccnc2)cc1-c1cnc(NC(=O)c2c(F)cccc2F)cn1` [Compound 13, 2,6-difluoro-N-(5-(2-(prop-1-en-2-yl)-5-(pyridin-3-yl)thiophen-3-yl)pyrazin-2-yl)benzamide]: the IC50 in the experiment with IL-2 (activity class) is 50 to 100 nM. On to `O=C(Nc1ccc(-c2cc(-c3cccnc3)sc2-c2cccnc2)cc1)c1c(F)cccc1F` [Compound 16, N-(4-(2,5-di(pyridin-3-yl)thiophen-3-yl)phenyl)-2,6-difluorobenzamide], for which the IC50 in the experiment on IL-2 (activity class) is under 50 nM.

As to `Cc1sc(-c2cccnc2)cc1-c1cnc(NC(=O)c2c(F)cccc2F)cn1` [Compound 17, 2,6-difluoro-N-(5-(2-methyl-5-(pyridin-3-yl)thiophen-3-yl)pyrazin-2-yl)benzamide], in the experiment on IL-2 (activity class), the IC50 is under 50 nM.

Take `CCc1sc(-c2cccnc2)nc1-c1ccc(NC(=O)c2cccc(F)c2C)nc1` [Compound A2]: in the experiment on IL-2 (numeric values, unit inferred), the IC50 was determined as 10 nM. On to `CCc1sc(-c2ccc(N)nc2)nc1-c1ccc(NC(=O)c2cccc(F)c2C)nc1` [Compound A3], for which, in the experiment with IL-2 (numeric values, unit inferred), the IC50 came to 16 nM. `Cc1sc(-c2ccc(N)nc2)nc1-c1cnc(NC(=O)c2c(F)cccc2F)cn1` [Compound A4]: the IC50 with IL-2 (numeric values, unit inferred) turned out to be 17 nM. Regarding `Cc1cccc(F)c1C(=O)Nc1ccc(-c2nc(-c3cnn(C)c3)sc2C)cn1` [Compound A5], in the experiment on IL-2 (numeric values, unit inferred), the IC50 amounted to 77 nM.

As to `Cc1cc(-c2nc(-c3ccc(NC(=O)c4cccc(F)c4C)nc3)c(C)s2)no1` [Compound A6], the IC50 in the experiment with IL-2 (numeric values, unit inferred) worked out at 21 nM. `CCc1sc(-c2ccc(C)nc2)nc1-c1ccc(NC(=O)c2cccc(F)c2C)nc1` [Compound A7]: the IC50 in the experiment on IL-2 (numeric values, unit inferred) turned out to be 21 nM. Still for that read-out and setting: the same measure for `Cc1cccc(F)c1C(=O)Nc1ccc(-c2nc(-c3ccc(N)nc3)sc2C)cn1` [Compound A8]: 26 nM; for `CCc1sc(-c2cccnc2C)nc1-c1ccc(NC(=O)c2cccc(F)c2C)nc1` [Compound A9]: 28 nM; for `CCc1sc(-c2cnn(C)c2)nc1-c1cnc(NC(=O)c2c(F)cccc2F)cn1` [Compound A10]: 40 nM. As for `Cc1sc(-c2cnccn2)nc1-c1ccc(NC(=O)c2cccc(F)c2C)nc1` [Compound A11], the IC50 in the experiment with IL-2 (numeric values, unit inferred) stood at 43 nM. Consider `CCc1sc(-c2cnn(C)c2)nc1-c1ccc(C(=O)Nc2c(C)cccc2F)cc1` [Compound A12], for which, in the experiment with IL-2 (numeric values, unit inferred), the IC50 amounted to 44 nM. Take `CC(C)c1sc(-c2cccnc2)cc1-c1cnc(NC(=O)c2c(F)cccc2F)cn1` [Compound T]: the IC50 with IL-2 (activity class) is under 50 nM.

Take `CC(C)c1sc(-c2cccnc2)nc1-c1ccc(NC(=O)c2ccc(F)cc2F)nc1` [D]: the IC50 with IL-2 (activity class) is 50 to 100 nM. Still for that read-out and setting: with `Cc1sc(CCc2cccnc2)nc1-c1ccc(NC(=O)c2c(F)cccc2F)nc1` [E] the figure was 50 to 100 nM; with `Cc1sc(-c2cnco2)nc1-c1ccc(NC(=O)c2c(F)cccc2F)cc1` [G], under 50 nM; with `Cc1sc(-c2ncc(-c3cccnc3)s2)cc1-c1ccc(NC(=O)c2c(F)cccc2F)nc1` [I], over 100 nM.

`Cc1sc(-c2ncco2)cc1-c1ccc(NC(=O)c2c(F)cccc2F)cc1` [J]: the IC50 in the experiment on IL-2 (activity class) is under 50 nM.

For the compound `Cc1sc(-c2cncn2CCN(C)C)cc1-c1ccc(NC(=O)c2c(F)cccc2F)cc1` [K], the IC50 in the experiment on IL-2 (activity class) is over 100 nM. Still for that read-out and setting: the same measure for `CC(=O)c1cc(-c2ccc(NC(=O)c3c(F)cccc3F)cc2)c(C)s1` [L]: over 100 nM; for `COC(=O)c1cc(NC(=O)c2c(F)cccc2F)ccc1-c1cc(-c2cccnc2)sc1CO` [M]: over 100 nM. The same measure, in the same setting: with `CC(C)(O)c1sc(-c2cccnc2)cc1-c1ccc(NC(=O)c2c(F)cccc2F)cc1` [N] the figure was under 50 nM. On the same count and under the same terms, the same measure for `Cc1sc(C(=O)c2ccncc2)cc1-c1ccc(NC(=O)c2c(F)cccc2F)cc1` [P]: under 50 nM; for `Cc1sc(C#Cc2cccnc2)cc1-c1ccc(NC(=O)c2c(F)cccc2F)cc1` [Q]: under 50 nM. In the case of `Cc1sc(CCc2cccnc2)cc1-c1ccc(NC(=O)c2c(F)cccc2F)cc1` [R], in the experiment with IL-2 (activity class), the IC50 was under 50 nM. With `Cc1sc(-c2ncco2)cc1-c1cnc(NC(=O)c2c(F)cccc2F)cn1` [S], the IC50 in the experiment on IL-2 (activity class) was under 50 nM.
